Common to all, as to format: cell-based
Series [1] concerns human peripheral blood mononuclear cells (PBMC). In words: PBMC cytotoxicity assay (CellTiter-Glo). As to conditions: cytotoxicity in stimulated PBMC, recorded as pCC50. (In general: In ATP-based viability assays light output follows the ATP content of the culture.)
Series [2] deals with human epithelial HeLa cells. In words: HeLa cytotoxicity assay (CellTiter-Glo). The conditions noted are these: cytotoxicity in stimulated HeLa cells, recorded as pCC50. How it is done:
(§1) Compounds of the present invention were tested via high-throughput cellular assays utilizing detection of kynurenine via mass spectrometry and cytotoxicity as end-points. […] Compounds with IDO1 inhibitory properties decreased the amount of kynurenine produced by the cells via the tryptophan catabolic pathway. Cellular toxicity due to the effect of compound treatment was measured using CellTiter-Glo® reagent (CTG) (Promega Corporation, Madison, Wis.), which is based on luminescent detection of ATP, an indicator of metabolically active cells.
(§2) In preparation for the assays, test compounds were serially diluted 3-fold in DMSO from a typical top concentration of 1 mM or 5 mM and plated at 0.5 μL in 384-well, polystyrene, clear bottom, tissue culture treated plates with lids (Greiner Bio-One, Kremsmünster, Austria) to generate 11-point dose response curves. Low control wells (0% kynurenine or 100% cytotoxicity) contained either 0.5 μL of DMSO in the presence of unstimulated (−IFN-γ) HeLa cells for the mass spectrometry assay or 0.5 μL of DMSO in the absence of cells for the cytotoxicity assay, and high control wells (100% kynurenine or 0% cytotoxicity) contained 0.5 μL of DMSO in the presence of stimulated (+IFN-γ) HeLa cells for both the mass spectrometry and cytotoxicity assays.
(§3) Frozen stocks of HeLa cells were washed and recovered in DMEM high glucose medium with HEPES (Thermo Fisher Scientific, Inc., Waltham, Mass.) supplemented with 10% v/v certified fetal bovine serum (FBS) (Thermo Fisher Scientific, Inc., Waltham, Mass.), and 1× penicillin-streptomycin antibiotic solution (Thermo Fisher Scientific, Inc., Waltham, Mass.). The cells were diluted to 100,000 cells/mL in the supplemented DMEM medium. 50 μL of either the cell suspension, for the mass spectrometry assay, or medium alone, for the cytotoxicity assay, were added to the low control wells, on the previously prepared 384-well compound plates, resulting in 5,000 cells/well or 0 cells/well respectively. IFN-γ was added to the remaining cell suspension at a final concentration of 10 nM, and 50 μL of the stimulated cells were added to all remaining wells on the 384-well compound plates. The plates, with lids, were then placed in a 37° C., 5% CO2 humidified incubator for 2 days.
(§4) Following incubation, the 384-well plates were removed from the incubator and allowed to equilibrate to room temperature for 30 minutes. For the cytotoxicity assay, CellTiter-Glo® was prepared according to the manufacturer's instructions, and 10 μL were added to each plate well. After a twenty minute incubation at room temperature, luminescence was read on an EnVision® Multilabel Reader (PerkinElmer Inc., Waltham, Mass.). For the mass spectrometry assay, 10 μL of supernatant from each well of the compound-treated plates were added to 40 μL of acetonitrile, containing 10 μM of an internal standard for normalization, in 384-well, polypropylene, V-bottom plates (Greiner Bio-One, Kremsmünster, Austria) to extract the organic analytes. Following centrifugation at 2000 rpm for 10 minutes, 10 μL from each well of the acetonitrile extraction plates were added to 90 μL of sterile, distilled H2O in 384-well, polypropylene, V-bottom plates for analysis of kynurenine and the internal standard on the RapidFire 300 (Agilent Technologies, Santa Clara, Calif.) and 4000 QTRAP MS (SCIEX, Framingham, Mass.). MS data were integrated using Agilent Technologies' RapidFire Integrator software, and data were normalized for analysis as a ratio of kynurenine to the internal standard.

Series [3] addresses indoleamine 2, 3-dioxygenase (IDO1) (Homo sapiens, UniProt P14902). In words: IDO1 HeLa RapidFire MS Assay (kynurenine by mass spectrometry). The conditions noted are these: HeLa cells stimulated with IFN-γ, 2 days; recorded as pIC50; read-out: IDO1 HeLa PXC50 (converted). How it is done: IDO1 HeLa RapidFire MS Assay
as §1, §2, §3, §4

Sequence of indoleamine 2, 3-dioxygenase (IDO1) (P14902 whole entry): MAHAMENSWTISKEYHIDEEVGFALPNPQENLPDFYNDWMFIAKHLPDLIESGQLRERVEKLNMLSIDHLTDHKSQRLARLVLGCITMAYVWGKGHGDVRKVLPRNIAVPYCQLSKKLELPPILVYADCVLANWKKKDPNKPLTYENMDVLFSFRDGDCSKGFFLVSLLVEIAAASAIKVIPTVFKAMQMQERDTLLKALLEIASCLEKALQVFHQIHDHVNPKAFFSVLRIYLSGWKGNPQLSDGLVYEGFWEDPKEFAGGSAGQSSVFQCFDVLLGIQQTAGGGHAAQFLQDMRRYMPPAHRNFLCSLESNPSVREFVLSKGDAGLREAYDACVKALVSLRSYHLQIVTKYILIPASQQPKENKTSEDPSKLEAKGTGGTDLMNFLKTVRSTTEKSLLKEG

In the case of `CC(C)CN(CC(C)C)c1ncc(C(C)CC(=O)O)cc1Nc1nc(C(F)(F)F)ns1` (stereo not shown) [Example 1, 3-(6-(diisobutylamino)-5-((3-(trifluoromethyl)-1,2,4-thiadiazol-5-yl)amino)pyridin-3-yl)butanoic acid], the “PBMC_TOX PXC50” value in series [1] is less than 5.0. The same molecule came in with an HELA_IDO1_TOX_PXC50 in series [2] of less than 5. Further, the IC50 in series [3] is 10 nM.
For `CC(C)CN(c1ncc([C@H](C)CC(=O)O)cc1Nc1ccc(Cl)nc1)C1CCOCC1` [Example 4, (R)-3-(5-((6-chloropyridin-3-yl)amino)-6-(isobutyl(tetrahydro-2H-pyran-4-yl)amino)pyridin-3-yl)butanoic acid] the same measures were less than 5.0, less than 5 and 10 nM.
As to `CC(C)CN(c1ncc(C(C)CC(=O)O)cc1Nc1ccc(Cl)cn1)C1CCOCC1` (stereo not shown) [Example 35, 3-{5-[(5-chloropyridin-2-yl)amino]-6-[(2-methylpropyl)(oxan-4-yl)amino]pyridin-3-yl}butanoic acid], the “PBMC_TOX PXC50” value in series [1] was less than 5.0. The molecule also gave an HELA_IDO1_TOX_PXC50 in series [2] of less than 5. Besides, in series [3], the IC50 is 7.94 nM.
Take `CC(C)CN(c1ncc([C@H](C)CC(=O)O)cc1Nc1nc(Cl)ns1)C1CCC(F)(F)CC1` [Example 30, (R)-3-(5-((3-chloro-1,2,4-thiadiazol-5-yl)amino)-6-((4,4-difluorocyclohexyl)(isobutyl)amino)pyridin-3-yl)butanoic acid]: in series [1], the “PBMC_TOX PXC50” value is given as less than 5.0. Besides, in series [2], the HELA_IDO1_TOX_PXC50 is reported as less than 5. In addition, the IC50 in series [3] was 39.8 nM.
For the molecule `CC(C)CN(c1ncc(C(C)CC(=O)O)cc1Nc1ccc(C#N)cn1)C1CCOCC1` (stereo not shown) [Example 33, 3-{5-[(5-cyanopyridin-2-yl)amino]-6-[(2-methylpropyl)(oxan-4-yl)amino]pyridin-3-yl}butanoic acid], in series [1], the “PBMC_TOX PXC50” value was less than 5.0. In series [2], this molecule yielded an HELA_IDO1_TOX_PXC50 of less than 5. Besides, the IC50 in series [3] is 20 nM.
Turning to `CC(C)CN(c1ncc(C(C)CC(=O)O)cc1Nc1nnc(C2CC2)s1)C1CCOCC1` (stereo not shown) [Example 36, 3-{5-[(5-cyclopropyl-1,3,4-thiadiazol-2-yl)amino]-6-[(2-methylpropyl)(oxan-4-yl)amino]pyridin-3-yl}butanoic acid], in series [1], the “PBMC_TOX PXC50” value is less than 5.0. In series [3], the IC50 was 7.94 nM.
Turning to `CC(C)CN(c1ncc([C@H](C)CC(=O)O)cc1Nc1nc(C(F)(F)F)ns1)C1CCCCC1` [Example 11, (R)-3-(6-(cyclohexyl(isobutyl)amino)-5-((3-(trifluoromethyl)-1,2,4-thiadiazol-5-yl)amino)pyridin-3-yl)butanoic acid], the “PBMC_TOX PXC50” value in series [1] is less than 5.0.
`CC(C)CN(CC(F)F)c1ncc([C@H](C)CC(=O)O)cc1Nc1ccc(Cl)cn1` [Example 71, (3R)-3-{5-[(5-chloropyridin-2-yl)amino]-6-[(2,2-difluoroethyl)(2-methylpropyl)amino]pyridin-3-yl}butanoic acid]: the “PBMC_TOX PXC50” value in series [1] was less than 5.0.
For the molecule `CC(C)CN(c1ncc([C@H](C)CC(=O)O)cc1Nc1ccc(C(F)(F)F)nn1)C1CCOCC1` [Example 66, (3R)-3-{6-[(2-methylpropyl)(oxan-4-yl)amino]-5-{[6-(trifluoromethyl)pyridazin-3-yl]amino}pyridin-3-yl}butanoic acid], the “PBMC_TOX PXC50” value in series [1] was less than 5.0.
Same read-out and setting: with `Cc1cc(NC(=O)Nc2cc([C@H](C)CC(=O)O)cnc2N(CC(C)C)C2CC3(C2)CN(C(=O)OC(C)(C)C)C3)on1` [Example 61, (3R)-3-[6-({2-[(tert-butoxy)carbonyl]-2-azaspiro[3.3]heptan-6-yl}(2-methylpropyl)amino)-5-{[(3-methyl-1,2-oxazol-5-yl)carbamoyl]amino}pyridin-3-yl]butanoic acid] the figure was less than 5.0; with `COCc1nsc(Nc2cc([C@H](C)CC(=O)O)cnc2N(CC(C)C)C2CCCCC2)n1` [Example 15, (R)-3-(6-(cyclohexyl(isobutyl)amino)-5-((3-(methoxymethyl)-1,2,4-thiadiazol-5-yl)amino)pyridin-3-yl)butanoic acid], less than 5.5.
Same read-out and setting: with `CC(C)CN(c1ncc([C@H](C)CC(=O)O)cc1Nc1nc(Cl)ns1)C1CCCCC1` [Example 12, (R)-3-(5-((3-chloro-1,2,4-thiadiazol-5-yl)amino)-6-(cyclohexyl(isobutyl)amino)pyridin-3-yl)butanoic acid] the figure was less than 5.0; with `CC(C)CN(c1ncc([C@H](C)CC(=O)O)cc1Nc1ccc(C(N)=O)nn1)C1CCOCC1` [Example 73, (3R)-3-{5-[(6-carbamoylpyridazin-3-yl)amino]-6-[(2-methylpropyl)(oxan-4-yl)amino]pyridin-3-yl}butanoic acid], less than 5.0.
Take `CO[C@H]1CC[C@@H](N(CC(C)C)c2ncc([C@H](C)CC(=O)O)cc2Nc2ccc(C#N)cn2)CC1` [Example 25, (R)-3-(5-((5-cyanopyridin-2-yl)amino)-6-(isobutyl((1s,4S)-4-methoxycyclohexyl)amino)pyridin-3-yl)butanoic acid]: the “PBMC_TOX PXC50” value in series [1] is recorded as less than 5.0.
The same measure, in the same setting: under `CC(C)CN(c1ncc([C@H](C)CC(=O)O)cc1Nc1nc(C(F)(F)F)ns1)[C@H]1CC[C@H](O)CC1` [Example 28, (R)-3-(6-(((1r,4R)-4-hydroxycyclohexyl)(isobutyl)amino)-5-((3-(trifluoromethyl)-1,2,4-thiadiazol-5-yl)amino)pyridin-3-yl)butanoic acid] stands less than 5.0; under `CC(C)CN(c1ncc([C@H](C)CC(=O)O)cc1Nc1nc(Cl)ns1)C1CC(F)(F)C1` [Example 81], less than 5.0; under `CC(C)CN(c1ncc([C@H](C)CC(=O)O)cc1Nc1nc(C(C)C)ns1)C1CCOCC1` [Example 8], less than 5.0.
Regarding `CC(C)CN(c1ncc([C@H](C)CC(=O)O)cc1Nc1ccc(Cl)nc1)C1CCC(F)(F)CC1` [Example 17, (R)-3-(5-((6-chloropyridin-3-yl)amino)-6-((4,4-difluorocyclohexyl)(isobutyl)amino)pyridin-3-yl)butanoic acid], the “PBMC_TOX PXC50” value in series [1] is recorded as less than 5.0.
Take `CC(C)CN(c1ncc([C@H](C)CC(=O)O)cc1Nc1nnc(C(N)=O)s1)C1CCCCC1` [Example 63, (3R)-3-{5-[(5-carbamoyl-1,3,4-thiadiazol-2-yl)amino]-6-[cyclohexyl(2-methylpropyl)amino]pyridin-3-yl}butanoic acid]: the “PBMC_TOX PXC50” value in series [1] is less than 5.0.
Turning to `CC(C)CN(CCC(F)(F)F)c1ncc([C@H](C)CC(=O)O)cc1Nc1ccc(Cl)cn1` [Example 76, (3R)-3-{5-[(5-chloropyridin-2-yl)amino]-6-[(2-methylpropyl)(3,3,3-trifluoropropyl)amino]pyridin-3-yl}butanoic acid], the “PBMC_TOX PXC50” value in series [1] is less than 5.0.
The same measure, in the same setting: under `Cc1nsc(Nc2cc([C@H](C)CC(=O)O)cnc2N(CC(C)C)C2CCCCC2)n1` [Example 16, (R)-3-(6-(cyclohexyl(isobutyl)amino)-5-((3-methyl-1,2,4-thiadiazol-5-yl)amino)pyridin-3-yl)butanoic acid] stands less than 5.2; under `CC(C)CN(c1ncc([C@H](C)CC(=O)O)cc1Nc1cnc(C#N)nc1)C1CCOCC1` [Example 65, (3R)-3-{5-[(2-cyanopyrimidin-5-yl)amino]-6-[(2-methylpropyl)(oxan-4-yl)amino]pyridin-3-yl}butanoic acid], less than 5.0; under `Cc1nnc(Nc2cc([C@H](C)CC(=O)O)cnc2N(CC(C)C)C2CCCCC2)s1` [Example 45, (3R)-3-{6-[cyclohexyl(2-methylpropyl)amino]-5-[(5-methyl-1,3,4-thiadiazol-2-yl)amino]pyridin-3-yl}butanoic acid], less than 5.0.
